Reference: ChEMBL document CHEMBL1146419, “Antimicrobial and cytotoxic phenolic glycoside esters from the New Zealand tree Toronia toru” (J Nat Prod, 1997)
≈ marks a conversion by molar mass, not a printed value.

Key:
Bacillus subtilis [1] = test: Antimicrobial activity against Bacillus subtilis at 120 ug/disk; assay type: functional; conditions: read-out: IZ
[2] = test system: Trichophyton mentagrophytes; test: Antimicrobial activity against Trichophyton mentagrophytes at 120 ug/disk; assay type: functional; conditions: read-out: IZ
Pseudomonas aeruginosa [3] = test: Antimicrobial activity against Pseudomonas aeruginosa at 15 ug/disk; assay type: functional; conditions: read-out: IZ
Bacillus subtilis [4] = test: Antimicrobial activity against Bacillus subtilis at 15 ug/disk; assay type: functional; conditions: read-out: IZ
[5] = Cytotoxicity against african green monkey BSC1 cells at 120 ug/disk; assay type: cell-based; conditions: chlorocebus aethiops, bsc-1
Bacillus subtilis [6] = test: Antimicrobial activity against Bacillus subtilis at 30 ug/disk; assay type: functional; conditions: read-out: IZ
P388 = test: Cytotoxicity against mouse P388 cells; assay type: functional, cell-based
[7] = Cytotoxicity against african green monkey BSC1 cells at 30 ug/disk; assay type: cell-based; conditions: chlorocebus aethiops, bsc-1
Escherichia coli [8] = test: Antimicrobial activity against Escherichia coli at 120 ug/disk; assay type: functional; conditions: read-out: IZ
Pseudomonas aeruginosa [9] = test: Antimicrobial activity against Pseudomonas aeruginosa at 30 ug/disk; assay type: functional; conditions: read-out: IZ
[10] = Cytotoxicity against african green monkey BSC1 cells at 15 ug/disk; assay type: cell-based; conditions: chlorocebus aethiops, bsc-1
Escherichia coli [11] = test: Antimicrobial activity against Escherichia coli at 60 ug/disk; assay type: functional; conditions: read-out: IZ
[12] = test system: Trichophyton mentagrophytes; test: Antimicrobial activity against Trichophyton mentagrophytes at 60 ug/disk; assay type: functional; conditions: read-out: IZ
Pseudomonas aeruginosa [13] = test: Antimicrobial activity against Pseudomonas aeruginosa at 120 ug/disk; assay type: functional; conditions: read-out: IZ
Escherichia coli [14] = test: Antimicrobial activity against Escherichia coli at 15 ug/disk; assay type: functional; conditions: read-out: IZ
[15] = test system: Trichophyton mentagrophytes; test: Antimicrobial activity against Trichophyton mentagrophytes at 30 ug/disk; assay type: functional; conditions: read-out: IZ
[16] = Cytotoxicity against african green monkey BSC1 cells at 60 ug/disk; assay type: cell-based; conditions: chlorocebus aethiops, bsc-1
Pseudomonas aeruginosa [17] = test: Antimicrobial activity against Pseudomonas aeruginosa at 60 ug/disk; assay type: functional; conditions: read-out: IZ
[18] = test system: Trichophyton mentagrophytes; test: Antimicrobial activity against Trichophyton mentagrophytes at 15 ug/disk; assay type: functional; conditions: read-out: IZ
Escherichia coli [19] = test: Antimicrobial activity against Escherichia coli at 30 ug/disk; assay type: functional; conditions: read-out: IZ
Bacillus subtilis [20] = test: Antimicrobial activity against Bacillus subtilis at 60 ug/disk; assay type: functional; conditions: read-out: IZ

SMILES: C=C1CCOC1=O [TULIPALINE A]
- zone of inhibition at 120 µg/disc (Bacillus subtilis [1]): 10 mm
- zone of inhibition at 120 µg/disc [2]: 8 mm
- zone of inhibition at 15 µg/disc (Pseudomonas aeruginosa [3]): 0 mm
- zone of inhibition at 15 µg/disc (Bacillus subtilis [4]): 0 mm
- Activity [5]: 100%
- zone of inhibition at 30 µg/disc (Bacillus subtilis [6]): 0 mm
- IC50 (P388): 0.8 µg/mL (≈ 8.15 µM)
- Activity [7]: 100%
- zone of inhibition at 120 µg/disc (Escherichia coli [8]): 5 mm
- zone of inhibition at 30 µg/disc (Pseudomonas aeruginosa [9]): 0 mm
- Activity [10]: 100%
- zone of inhibition at 60 µg/disc (Escherichia coli [11]): 0 mm
- zone of inhibition at 60 µg/disc [12]: 0 mm
- zone of inhibition at 120 µg/disc (Pseudomonas aeruginosa [13]): 4 mm
- zone of inhibition at 15 µg/disc (Escherichia coli [14]): 0 mm
- zone of inhibition at 30 µg/disc [15]: 0 mm
- Activity [16]: 100%
- zone of inhibition at 60 µg/disc (Pseudomonas aeruginosa [17]): 0 mm
- zone of inhibition at 15 µg/disc [18]: 0 mm
- zone of inhibition at 30 µg/disc (Escherichia coli [19]): 0 mm
- zone of inhibition at 60 µg/disc (Bacillus subtilis [20]): 0 mm

SMILES: C=C(C(=O)OC[C@H]1O[C@@H](Oc2ccc(O)cc2)[C@H](O)[C@@H](O)[C@@H]1O)[C@@H](O)CO
- zone of inhibition at 120 µg/disc (Bacillus subtilis [1]): 5 mm
- zone of inhibition at 120 µg/disc [2]: 5 mm
- Activity [5]: 100%
- zone of inhibition at 30 µg/disc (Bacillus subtilis [6]): 0 mm
- IC50 (P388): 3 µg/mL (≈ 7.76 µM)
- Activity [7]: 50%
- zone of inhibition at 120 µg/disc (Escherichia coli [8]): 4 mm
- zone of inhibition at 30 µg/disc (Pseudomonas aeruginosa [9]): 0 mm
- zone of inhibition at 60 µg/disc (Escherichia coli [11]): 2 mm
- zone of inhibition at 60 µg/disc [12]: 0 mm
- zone of inhibition at 120 µg/disc (Pseudomonas aeruginosa [13]): 3 mm
- zone of inhibition at 30 µg/disc [15]: 0 mm
- Activity [16]: 100%
- zone of inhibition at 60 µg/disc (Pseudomonas aeruginosa [17]): 1 mm
- zone of inhibition at 30 µg/disc (Escherichia coli [19]): 0 mm
- zone of inhibition at 60 µg/disc (Bacillus subtilis [20]): 1 mm

SMILES: C=C(CCO)C(=O)OC[C@H]1O[C@@H](Oc2ccc(O)cc2)[C@H](O)[C@@H](O)[C@@H]1O
- zone of inhibition at 120 µg/disc (Bacillus subtilis [1]): 0 mm
- zone of inhibition at 120 µg/disc [2]: 0 mm
- Activity [5]: 100%
- zone of inhibition at 30 µg/disc (Bacillus subtilis [6]): 0 mm
- IC50 (P388): > 25 µg/mL
- Activity [7]: 100%
- zone of inhibition at 120 µg/disc (Escherichia coli [8]): 0 mm
- zone of inhibition at 30 µg/disc (Pseudomonas aeruginosa [9]): 0 mm
- Activity [10]: 50%
- zone of inhibition at 60 µg/disc (Escherichia coli [11]): 0 mm
- zone of inhibition at 60 µg/disc [12]: 0 mm
- zone of inhibition at 120 µg/disc (Pseudomonas aeruginosa [13]): 0 mm
- zone of inhibition at 30 µg/disc [15]: 0 mm
- Activity [16]: 100%
- zone of inhibition at 60 µg/disc (Pseudomonas aeruginosa [17]): 0 mm
- zone of inhibition at 30 µg/disc (Escherichia coli [19]): 0 mm
- zone of inhibition at 60 µg/disc (Bacillus subtilis [20]): 0 mm

SMILES: OC[C@H]1O[C@@H](Oc2ccc(O)cc2)[C@H](O)[C@@H](O)[C@@H]1O [ARBUTIN]
- zone of inhibition at 120 µg/disc (Bacillus subtilis [1]): 0 mm
- zone of inhibition at 120 µg/disc [2]: 0 mm
- Activity [5]: 50%
- IC50 (P388): > 25 µg/mL
- zone of inhibition at 120 µg/disc (Escherichia coli [8]): 0 mm
- zone of inhibition at 120 µg/disc (Pseudomonas aeruginosa [13]): 0 mm

SMILES: Oc1ccc(O)cc1 [HYDROQUINONE]
- zone of inhibition at 120 µg/disc (Bacillus subtilis [1]): 9 mm
- zone of inhibition at 120 µg/disc [2]: 10 mm
- Activity [5]: 100%
- zone of inhibition at 30 µg/disc (Bacillus subtilis [6]): 3 mm
- IC50 (P388): 3 µg/mL (≈ 27.2 µM)
- Activity [7]: 75%
- zone of inhibition at 120 µg/disc (Escherichia coli [8]): 5 mm
- zone of inhibition at 30 µg/disc (Pseudomonas aeruginosa [9]): 2 mm
- zone of inhibition at 60 µg/disc (Escherichia coli [11]): 0 mm
- zone of inhibition at 60 µg/disc [12]: 0 mm
- zone of inhibition at 120 µg/disc (Pseudomonas aeruginosa [13]): 3 mm
- zone of inhibition at 30 µg/disc [15]: 0 mm
- Activity [16]: 100%
- zone of inhibition at 60 µg/disc (Pseudomonas aeruginosa [17]): 3 mm
- zone of inhibition at 30 µg/disc (Escherichia coli [19]): 0 mm
- zone of inhibition at 60 µg/disc (Bacillus subtilis [20]): 4 mm
